From patent US20240239788A1, “SMALL MOLECULE INHIBITORS OF KRAS G12D MUTANT” (Merck Sharp & Dohme LLC, priority 2021, published 2024)
Where two headings read alike, the source gives them in different places.

Assays:
[1] = target: KRAS protein containing G12D mutation (Homo sapiens (Human), UniProt P01116, G12D); assay: SOS-catalyzed nucleotide exchange assay (GNE), TR-FRET; type: biochemical; details: biotinylated KRAS G12D, SOS and GTP, 60-minute incubation
Experimental: Compounds are added to this complex and then after a 60-minute incubation time the mixture is treated with SOS and unlabeled GTP. Small molecule inhibitors stabilize the Bodipy-GDP complex whereas the untreated protein rapidly exchanges Bodipy-GDP for unlabeled GTP resulting in reduced TR-FRET signal.
This solution is referred to as biotinylated KRAS G12D stock solution.

[2] = system: AsPC-1 cells containing homozygous KRAS-G12D activating mutation; assay: Cellular phospho-ERK assay (Examples 1a-106); type: cell-based; details: AsPC-1 cells, 2 hours, ratio of p-Erk vs total Erk, read-out: IC50 (nM) pERK (Cell)
Description: 5% CO? overnight. […] Assay plates were read on a EnVision Multimode Plate Reader (PerkinElmer) and the ratio of p-Erk vs total Erk in each well was used as the final readout.

Chain of KRAS protein containing G12D mutation (P01116 other isoform, or with tags, fused parts or gaps G12D (already in the parent)): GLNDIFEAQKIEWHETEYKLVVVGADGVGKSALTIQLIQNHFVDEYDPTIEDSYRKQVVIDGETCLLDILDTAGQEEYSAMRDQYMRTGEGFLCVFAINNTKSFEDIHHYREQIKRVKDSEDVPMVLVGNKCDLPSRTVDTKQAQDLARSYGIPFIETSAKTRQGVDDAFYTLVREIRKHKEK

| SMILES | IC50 [1] [nM] | IC50 [2] [nM] | IC50 ([2]; Homo sapiens, ASPC1, 2 h) [nM] |
| --- | --- | --- | --- |
| CN(C)CC1(COc2nc(N3CC4CC(O)C(C3)N4)c3cc(Cl)c(-c4cc(O)cc5ccccc45)c(F)c3n2)CC1 (single isomer, unassigned) [Example 23, 3-(6-chloro-2-((1-((dimethyalmino)meth-yl)cyclopropyl)meth-oxy)-8-fluoro-7-(3-hydroxynaphthalen-1-yl)quinazolin-4-yl)-3,8-diazabicyclo[3.2.1]oc-tan-6-ol] | 4280 | 44800 | – |
| CN(C)CC1(COc2nc(N3C[C@@]4(C)CC[C@H]3CN4)c3cc(Cl)c(-c4cc(O)cc5ccccc45)c(F)c3n2)CC1 (single isomer, unassigned) [Example 38b] | 3400 | 22200 | – |
| Cc1cc2[nH]ncc2c(-c2c(F)cc3c(N4CC5CCC(C4)N5)nc(OCC4(CN(C)C)CC4(F)F)nc3c2F)c1C (single isomer, unassigned) [Example 66a, 1-(1-(((4-(3,8-diazabicyclo [3.2.1]octan-3-yl)-7-(5,6-dimethyl-1H-indazol-4-yl)-6,8-difluoroquinazolin-2-yl)oxy)methyl)-2,2-difluorocyclopropyl)-N,N-dimethylmethanamine] | 54 | – | 3460 |
| Cc1cc2[nH]ncc2c(-c2c(F)cc3c(N4CC5CCC(C4)N5)nc(OCC4(CN(C)C)CC4(F)F)nc3c2F)c1C (single isomer, unassigned) [Example 66b, 1-(1-(((4-(3,8-diazabicyclo [3.2.1]octan-3-yl)-7-(5,6-dimethyl-1H-indazol-4-yl)-6,8-difluoroquinazolin-2-yl)oxy)methyl)-2,2-difluorocyclopropyl)-N,N-dimethylmethanamine] | 31.1 | 2120 | – |
| Cc1c(Cl)cc2[nH]ccc2c1-c1c(F)cc2c(N3CC4CCC(C3)N4)nc(OCC3(CN(C)C)CC3)nc2c1F [Ex 73, 1-(1-(((4-(3,8-diazabicyclo[3.2.1]octan-3-yl)-7-(6-chloro-5-methyl-1H-indol-4-yl)-6,8-difluoroquinazolin-2-yl)oxy)methyl)cyclopropyl)-N,N-dimethylmethanamine] | 1250 | – | 14000 |
| Cc1c(Cl)cc2[nH]nc(C)c2c1-c1c(F)cc2c(N3CC4CCC(C3)N4)nc(OCC3(CN4CCOCC4)CC3)nc2c1F [Ex 74, 4-((1-(((4-(3,8-diazabicyclo[3.2.1]octan-3-yl)-7-(6-chloro-3,5-dimethyl-1H-indazol-4-yl)-6,8-difluoroquinazolin-2-yl)oxy)methyl)cyclopropyl)methyl) morpholine] | 69.1 | – | 2000 |
| Cc1c(Cl)cc2[nH]nc(C)c2c1-c1c(F)cc2c(N3C[C@H]4CC[C@@](C)(C3)N4)nc(OC[C@]3(CN(C)C)CC3(F)F)nc2c1F [Ex 75, 1-((1R)-1-(((7-(6-chloro-3,5-dimethyl-1H-indazol-4-yl)-6,8-difluoro-4-((1S,5R)-1-methyl-3,8-diazabicyclo[3.2.1]octan-3-yl)quinazolin-2-yl)oxy)methyl)-2,2-difluorocyclopropyl)-N,N-dimethylmethanamine] | 1440 | – | 7160 |
| Cc1cc2[nH]nc(C)c2c(-c2c(F)cc3c(N4C[C@H]5CC[C@@](C)(C4)N5)nc(OC[C@@H]4C[C@@H](F)CN4C)nc3c2F)c1Cl [Ex 77, 7-(5-chloro-3,6-dimethyl-1H-indazol-4-yl)-6,8-difluoro-2-(((2S,4R)-4-fluoro-1-methylpyrrolidin-2-yl)methoxy)-4-((1S,5R)-1-methyl-3,8-diazabicyclo[3.2.1]octan-3-yl)quinazoline] | 792 | – | 5350 |
| Cc1c(Cl)cc2[nH]nc(Cl)c2c1-c1c(F)cc2c(N3C[C@H]4CC[C@@](C)(C3)N4)nc(OCC3(CN4CC[C@@H](F)C4)CC3)nc2c1F [Ex 78, 7-(3,6-dichloro-5-methyl-1H-indazol-4-yl)-6,8-difluoro-2-((1-(((R)-3-fluoropyrrolidin-1-yl)methyl)cyclopropyl)methoxy)-4-((1S,5R)-1-methyl-3,8-diazabicyclo[3.2.1]octan-3-yl)quinazoline] | 1630 | – | 6370 |
| CN(C)C[C@@]1(COc2nc(N3C[C@]4(C)CC[C@H]3CN4)c3cc(F)c(-c4cc(O)cc5ccccc45)c(F)c3n2)CC1(F)F [Ex 83, 4-(2-(((R)-1-((dimethylamino)methyl)-2,2-difluorocyclopropyl)methoxy)-6,8-difluoro-4-((1S,4S)-4-methyl-2,5-diazabicyclo [2.2.2]octan-2-yl)quinazolin-7-yl) naphthalen-2-ol] | 2.72 | – | 640 |
| Cc1cc(N)nc(-c2c(F)cc3c(N4CC5CCC(C4)N5)nc(OCC4(CN5CCOCC5)CC4)nc3c2F)c1Cl [Ex 88, 6-(4-((1R,5S)-3,8-diazabicyclo[3.2.1]octan-3-yl)-6,8-difluoro-2-((1-(morpholinomethyl)cyclopropy)methoxy)quinazolin-7-yl)-5-chloro-4-methylpyridin-2-amine] | 1350 | – | 13200 |
| Oc1cc(-c2c(Cl)cc3c(N4CC5NC(C4)C(O)C5O)nc(OCC4(CN5CCOCC5)CC4)nc3c2F)c2ccccc2c1 (centres unmarked) [Ex. 1a, 3-(6-chloro-8-fluoro-7-(3-hydroxynaphthalen-1-yl)-2-((1-(morpholinomethyl)cyclopropyl)methoxy)quinazolin-4-yl)-3,8-diazabicyclo[3.2.1]octane-6,7-diol] | 742 | – | 14600 |
| Oc1cc(-c2c(F)cc3c(N4CC5NC(C4)C(O)C5O)nc(OCC4(CN5CCOCC5)CC4)nc3c2F)c2ccccc2c1 (centres unmarked) [Ex. 2, 3-(6,8-difluoro-7-(3-hydroxynaphthalen-1-yl)-2-((1-(morpholinomethyl)cyclopropyl)methoxy)quinazolin-4-yl)-3,8-diazabicyclo[3.2.1]octane-6,7-diol] | 660 | – | 33200 |
| OCC1(COc2nc(N3CC4CCC(C3)N4)c3cc(F)c(-c4cc(O)cc5ccccc45)c(F)c3n2)CNC1 [Ex. 4, 4-(4-(3.8-diazabicyclo[3.2.1]octan-3-yl)-6,8-difluoro-2-((3-(hydroxymethyl)azetidin-3-yl)methoxy)quinazolin-7-yl)naphthalen-2-ol] | 169 | 50800 | – |
| C=C[C@H]1[C@@H]2CC[C@@H](CN2)N1c1nc(OCC2(CN(C)C)CC2)nc2c(F)c(-c3cc(O)cc4ccccc34)c(F)cc12 [Ex. 6a, 4-(2-((1-((dimethylamino)methyl)cyclopropyl)methoxy)-6,8-difluoro-4-((1S,3S,4S)-3-vinyl-2,5-diazabicyclo[2.2.2]octan-2-yl)quinazolin-7-yl)naphthalen-2-ol] | 159 | – | 13300 |
| Cc1cc2[nH]ncc2c(C2Cc3nc(OCC4(CN5CC[C@@H](F)C5)CC4)nc(N4C[C@H]5CC[C@@](C)(C4)N5)c3CO2)c1C(F)(F)F (stereo partly drawn) [Ex. 97, 2-((1-(((R)-3-fluoropyrrolidin-1-yl)methyl)cyclopropyl)methoxy)-7-(6-methyl-5-(trifluoromethyl)-1H-indazol-4-yl)-4-((1S,5R)-1-methyl-3,8-diazabicyclo[3.2.1]octan-3-yl)-7,8-dihydro-5H-pyrano[4,3-d]pyrimidine] | 3950 | – | 24300 |
| Cc1cc2[nH]ncc2c(C2Cc3nc(OCC4(CN5CC[C@@H](F)C5)CC4)nc(N4C[C@H]5CC[C@@](C)(C4)N5)c3C(=O)N2)c1C(F)(F)F (stereo partly drawn) [Ex. 98b, 2-((1-(((R)-3-fluoropyrrolidin-1-yl)methyl)cyclopropyl)methoxy)-7-(6-methyl-5-(trifluoromethyl)-1H-indazol-4-yl)-4-((1S,5R)-1-methyl-3,8-diazabicyclo[3.2.1]octan-3-yl)-7,8-dihydropyrido[4,3-d]pyrimidin-5(6H)-one] | 11100 | – | 50800 |
| C=C[C@@H]1[C@@H]2CC[C@@H](CN2)N1c1nc(OCC2(CN(C)C)CC2)nc2c(F)c(-c3cc(O)cc4ccccc34)c(F)cc12 [Example 6b, 4-(2-((1-((dimethylamino)methyl)cyclopropyl)methoxy)-6,8-difluoro-4-((1S,3R,4S)-3-vinyl-2,5-diazabicyclo[2.2.2]octan-2-yl)quinazolin-7-yl)naphthalen-2-ol] | 426 | – | 5500 |
| CC[C@H]1[C@@H]2CC[C@@H](CN2)N1c1nc(OCC2(CN(C)C)CC2)nc2c(F)c(-c3cc(O)cc4ccccc34)c(F)cc12 [Example 9, 4-(2-((1-((dimethylamino)methyl)cyclopropyl)methoxy)-4-((1S,3S,4S)-3-ethyl-2,5-diazabicyclo[2.2.2]octan-2-yl)-6,8-difluoroquinazolin-7-yl)naphthalen-2-ol] | 1330 | – | 13600 |
| CC[C@@H]1[C@@H]2CC[C@@H](CN2)N1c1nc(OCC2(CN(C)C)CC2)nc2c(F)c(-c3cc(O)cc4ccccc34)c(F)cc12 [Example 10, 4-(2-((1-((dimethylamino)methyl)cyclopropyl)methoxy)-4-((1S,3R,4S)-3-ethyl-2,5-diazabicyclo[2,2,2]octan-2-yl)-6,8-difluoroquinazolin-7-yl)naphthalen-2-ol] | 2750 | – | 9830 |
| O=C(O)C1CC1COc1nc(N2CC3CCC(C2)N3)c2cc(F)c(-c3cc(O)cc4ccccc34)c(F)c2n1 (centres unmarked) [Example 13, 2-(((4-(3.8-diazabicyclo[3.2.1]octan-3-yl)-6,8-difluoro-7-(3-hydroxynaphthalen-1-yl)quinazolin-2-yl)oxy)methyl)cyclopropane-1-carboxylc acid] | 5880 | 50800 | – |
| Oc1cc(-c2c(F)cc3c(N4CC5CCC(C4)N5)nc(N4CC5(CCCN5)C4)nc3c2F)c2ccccc2c1 [Example 14, 4-(4-(3.8-diazabicyclo[3.2.1]octan-3-yl)-6,8-difluoro-2-(2,5-diazaspiro[3.4]octan-2-yl)quinazolin-7-yl)naphthalen-2-ol] | 1570 | – | 24000 |
